# Measurements reported in patent publication US9981071B2, “Drug delivery medical device” (Micell Technologies, Inc., priority 2008, dated 2018).
# Legend:
# [1] = test system: bladder cancer recurrence; details: 40 mg/20 cc vs 20 mg/20 cc, dehydration, bladder emptying, alkalinization with sodium bicarbonate; cited from earlier work
# [2] = acid urine; cited from earlier work
# [3] = parameters: dose or concentration left out as unconfirmed; details: estradiol release, as its 3-acetate ester; cited from earlier work
# [4] = Bulk drug in arterial tissue surrounding the implanted stent; assay type: in vivo, Yucatan pig
# Experimental: Another sample of the coated stent was prepared for in vivo evaluation in a porcine coronary artery model using the Yucatan pig. Subjects were initially given 650 mg acetylsalicylic acid and 300 mg Plavix. Maintenance doses of 81 mg acetylsalicylic acid and 75 mg Plavix were administered. The target ACT (activated clotting time) for the procedure was about 250 seconds. Stent oversizing in relation to the artery was about 10-20%. The preparation of the sirolimus-coated stent was the same as described in Example 1 and used for the in vitro deployment into tubing, except that the device was sterilized using ETO prior to implantation into the animal.
# The bulk concentration of drug was measured in the arterial tissue surrounding the implanted stent at 1, 3, 7, 14, and 28 days after implant, and provided a quantitative measure of the high efficiency of transfer of drug into the therapeutic site using devices and methods of the invention. The amount of drug that was detected in the arterial tissue was as follows: 1 day after implant, ˜6 μg; 3 days after implant, ˜16 μg; 7 days after implant, ˜30 μg; 14 days after implant, ˜30 μg; 28 days after implant, ˜13 μg. Peak tissue concentration of sirolimus of ˜30 μg at 14 days after implant was representative of approximately ⅙ of the total drug that had been loaded on the stent. Note that some drug likely metabolized or diffused out of the arterial tissue into other areas of the body.
compound,measurement,setting,value
CO[C@@]12[C@H](COC(N)=O)C3=C(C(=O)C(C)=C(N)C3=O)N1C[C@@H]1N[C@@H]12 [Mitomycin C],recurrence with optimized schedule,[1],nearly cut in half
same,stability in urine,[2],inactivated by acid urine
C[C@]12CC[C@@H]3c4ccc(O)cc4CC[C@H]3[C@@H]1CC[C@@H]2O [estradiol],circulating plasma concentration maintained,[3],300 pmol/L
CO[C@H]1C[C@@H]2CC[C@@H](C)[C@@](O)(O2)C(=O)C(=O)N2CCCC[C@H]2C(=O)O[C@H]([C@H](C)C[C@@H]2CC[C@@H](O)[C@H](OC)C2)CC(=O)[C@H](C)/C=C(\C)[C@@H](O)[C@@H](OC)C(=O)[C@H](C)C[C@H](C)/C=C/C=C/C=C/1C [sirolimus],amount of drug detected in the arterial tissue,[4]; 1 day after implant,~6 µg
same,amount of drug detected in the arterial tissue,[4]; 3 days after implant,~16 µg
same,amount of drug detected in the arterial tissue,[4]; 7 days after implant,~30 µg
same,amount of drug detected in the arterial tissue,[4]; 14 days after implant,~30 µg
same,peak tissue level as fraction of the total drug loaded on the stent,[4]; 14 days after implant,approximately ⅙
same,amount of drug detected in the arterial tissue,[4]; 28 days after implant,~13 µg
